According to article PMC11995724, “Antibiotic target discovery by integrated phenotypic and activity-based profiling of electrophilic fragments” (Cell chemical biology, 2025):

Assay: in vitro
Details: human, hek293t cells

## Cc1cc(C=C(C#N)C(=O)Nc2cn[nH]c2)c(C)n1-c1ccc(F)cc1 [9-N07, 2-cyano-3-[1-(4-fluorophenyl)-2,5-dimethyl-1H-pyrrol-3-yl]-N-(1H-pyrazol-4-yl)prop-2-enamide]
  viability at 48 h, 25 µM: 95.1%

## C=CC(=O)N1CCC(C(=O)Nc2ccn(CC(=O)N(C)C)n2)CC1 [2-H12, N-{1-[(dimethylcarbamoyl)methyl]-1H-pyrazol-3-yl}-1-(prop-2-enoyl)piperidine-4-carboxamide]
  viability at 48 h, 25 µM: 71%

## CC(Cl)C(=O)NC1COc2ccc(F)cc21 (stereo not shown) [7-A17, 2-chloro-N-(5-fluoro-2,3-dihydro-1-benzofuran-3-yl)propanamide]
  viability at 48 h, 25 µM: 74%

## Cc1ccc(C=C(C#N)C(N)=O)c(C)c1 [9-M04, 2-cyano-3-(2,4-dimethylphenyl)prop-2-enamide]
  viability at 48 h, 25 µM: 115%

## C=CC(=O)NCC1(C)CCS(=O)(=O)CC1 [1-G16, N-[(4-methyl-1,1-dioxo-1lambda6-thian-4-yl)methyl]prop-2-enamide]
  viability at 48 h, 25 µM: 83.1%

## CC(Cl)C(=O)Nc1ccc(F)c(Cl)c1 (stereo not shown) [4-A04, 2-chloro-N-(3-chloro-4-fluorophenyl)propanamide]
  viability at 48 h, 25 µM: 56.5%

## CC(NC(=O)CCl)C(=O)N1c2ccccc2CC1C (stereo not shown) [7-N16, 2-chloro-N-[1-(2-methyl-2,3-dihydro-1H-indol-1-yl)-1-oxopropan-2-yl]acetamide]
  viability at 48 h, 25 µM: 0.726%

## C=CC(=O)N1CCC(C(=O)Nc2cccc(-c3n[nH]c(C)n3)c2)CC1 [2-J09, N-[3-(5-methyl-1H-1,2,4-triazol-3-yl)phenyl]-1-(prop-2-enoyl)piperidine-4-carboxamide]
  viability at 48 h, 25 µM: 58.8%

## C=CC(=O)N(CC)CC(=O)N1CCC(c2nncn2C)CC1 [2-L10, N-ethyl-N-{2-[4-(4-methyl-4H-1,2,4-triazol-3-yl)piperidin-1-yl]-2-oxoethyl}prop-2-enamide]
  viability at 48 h, 25 µM: 72.6%

## Cc1cc(C(=O)CCl)c(C)n1-c1ccc(S(N)(=O)=O)cc1 [10-N14, 4-[3-(2-chloroacetyl)-2,5-dimethyl-1H-pyrrol-1-yl]benzene-1-sulfonamide]
  viability at 48 h, 25 µM: 85.8%

## O=C(CCl)N1N=C(c2cccs2)CC1c1cccc(O)c1 (stereo not shown) [6-L04, 2-chloro-1-[5-(3-hydroxyphenyl)-3-(thiophen-2-yl)-4,5-dihydro-1H-pyrazol-1-yl]ethan-1-one]
  viability at 48 h, 25 µM: 0.561%

## O=C(CCl)NC(c1ccc(F)cc1)C1CCCC1 (stereo not shown) [6-K08, 2-chloro-N-[cyclopentyl(4-fluorophenyl)methyl]acetamide]
  viability at 48 h, 25 µM: 1.04%

## Cc1ccc(CN(C(=O)CCl)C2CC2)o1 [6-E03, 2-chloro-N-cyclopropyl-N-[(5-methylfuran-2-yl)methyl]acetamide]
  viability at 48 h, 25 µM: 0.647%

## Cc1c(Cl)cccc1NC(=O)CNC(=O)CCl [5-N20, 2-chloro-N-{[(3-chloro-2-methylphenyl)carbamoyl]methyl}acetamide]
  viability at 48 h, 25 µM: 1.4%

## O=C(CCl)Nc1cc(-c2ccc3c(c2)CCC3)nn1-c1ccccc1 [6-J10, 2-chloro-N-[3-(2,3-dihydro-1H-inden-5-yl)-1-phenyl-1H-pyrazol-5-yl]acetamide]
  viability at 48 h, 25 µM: 0.354%

## CCCCNC(=O)C(C#N)=Cc1cc(C)ccc1C [9-C11, N-butyl-2-cyano-3-(2,5-dimethylphenyl)prop-2-enamide]
  viability at 48 h, 25 µM: 93.1%

## C=CC(=O)N1CCC(C(=O)N[C@H]2CCOc3c(F)cccc32)CC1 [3-F12, N-[(4S)-8-fluoro-3,4-dihydro-2H-1-benzopyran-4-yl]-1-(prop-2-enoyl)piperidine-4-carboxamide]
  viability at 48 h, 25 µM: 64.9%

## CC(C)(C)C1CCc2c(sc(NC(=O)CCl)c2C#N)C1 (stereo not shown) [5-E17, N-(6-tert-butyl-3-cyano-4,5,6,7-tetrahydro-1-benzothiophen-2-yl)-2-chloroacetamide]
  viability at 48 h, 25 µM: 0.117%

## O=C(CCl)Nc1ccnn1Cc1ccccc1Cl [6-O08, 2-chloro-N-{1-[(2-chlorophenyl)methyl]-1H-pyrazol-5-yl}acetamide]
  viability at 48 h, 25 µM: 0.422%
